Laboratory results: BigSolDB 2.1

NNC(=O)c1ccncc1
solubility (mole fraction)
Conditions | 283.15 K | 288.15 K | 293.15 K | 298.15 K | 303.15 K | 308.15 K | 313.15 K | 318.15 K | 323.15 K
in DMF | 0.023 | 0.027 | 0.031 | 0.035 | 0.0412 | 0.0458 | 0.0511 | 0.0567 | 0.0649
in acetonitrile | 0.000725 | 0.000912 | 0.00109 | 0.00141 | 0.00169 | 0.002 | 0.00241 | 0.00288 | 0.00331
in ethanol | 0.00266 | 0.00318 | 0.00384 | 0.00465 | 0.00549 | 0.00646 | 0.00754 | 0.0087 | 0.00996
in ethyl acetate | 0.000976 | 0.0012 | 0.00136 | 0.0016 | 0.00195 | 0.00234 | 0.00279 | 0.00331 | 0.00374
in isopropanol | 0.0021 | 0.00253 | 0.00314 | 0.00373 | 0.00453 | 0.00558 | 0.00651 | 0.00804 | 0.00949
in methanol | 0.00574 | 0.0067 | 0.00797 | 0.00961 | 0.0112 | 0.0131 | 0.0151 | 0.0179 | 0.0211
in n-propanol | 0.00219 | 0.00264 | 0.00329 | 0.00419 | 0.00495 | 0.0059 | 0.00705 | 0.0084 | 0.00983
in water | 0.0106 | 0.0134 | 0.0159 | 0.0198 | 0.024 | 0.0296 | 0.0354 | 0.0421 | 0.0517
